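Grown in 96-well plates, cells were treated for 48 hours with each compound at five concentrations. Insufficient inhibition: endpoint recorded as highest concentration tested. At the GI50, growth is halved. TGI: total growth inhibition.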
Columns and labels:
Assay in all cases: NCI-60 cell line screen, 48 h
DLD-1 colon = tested on: DLD-1 colon
DMS 114 small cell lung = tested on: DMS 114 small cell lung
LXFL 529 NSCLC = tested on: LXFL 529 NSCLC
DU-145 prostate = tested on: DU-145 prostate
MCF7 breast = tested on: MCF7 breast
NCI/ADR-RES ovarian = tested on: NCI/ADR-RES ovarian
T-47D breast = tested on: T-47D breast
KM20L2 colon = tested on: KM20L2 colon
HOP-18 NSCLC = tested on: HOP-18 NSCLC
RXF-631 renal = tested on: RXF-631 renal

`O=C(Nc1ccc(Cl)cc1Cl)C(=O)C(C(=O)c1ccc2ccccc2c1)C1OC(=O)c2ccccc21` (stereo unspecified) showed a TGI (DLD-1 colon) of 30.9 µM, a TGI (DMS 114 small cell lung) of 46.2 µM and a TGI (LXFL 529 NSCLC) of 17.6 µM.
`CCc1n(Cc2ccc3ccccc3n2)cc[n+]1Cc1ccc2ccccc2n1` was tested, and the GI50 (DU-145 prostate) was 1.93 µM, the TGI (DU-145 prostate) was 51.7 µM and the GI50 (MCF7 breast) was 0.135 µM. For the same compound, the TGI (MCF7 breast) was 11.6 µM, the GI50 (NCI/ADR-RES ovarian) was > 100 µM and the TGI (NCI/ADR-RES ovarian) was > 100 µM. It also gave a GI50 (T-47D breast) of 0.046 µM and a TGI (T-47D breast) of 0.794 µM.
For `COc1ccc2c(c1)/C(=C\c1cccnc1)C(=O)N2`, the GI50 (DU-145 prostate) was 2.52 µM, the TGI (DU-145 prostate) was 21.3 µM and the GI50 (MCF7 breast) was 10.9 µM. It also gave a TGI (MCF7 breast) of 53.4 µM, a GI50 (NCI/ADR-RES ovarian) of 25.4 µM and a TGI (NCI/ADR-RES ovarian) of 70.1 µM. The GI50 (T-47D breast) was 13 µM and the TGI (T-47D breast) was 37.9 µM.
Work on `CN1CCN(c2ccc(NC(=O)c3nc4ccc5[nH]ncc5c4c4c3CCCC4)cc2C(F)(F)F)CC1` yielded a GI50 (DU-145 prostate) of 1.03 µM, a TGI (DU-145 prostate) of 2.15 µM and a GI50 (MCF7 breast) of 0.964 µM. For the same compound, the TGI (MCF7 breast) was 2.32 µM, the GI50 (NCI/ADR-RES ovarian) was 1.27 µM and the TGI (NCI/ADR-RES ovarian) was 4.21 µM. It also gave a GI50 (T-47D breast) of 0.835 µM and a TGI (T-47D breast) of 1.74 µM.
With `O=C1C=C(NCCNC(=S)Nc2ccccc2)c2nccc3c2c1nc1ccccc13` the GI50 (DU-145 prostate) was 39.8 µM, the TGI (DU-145 prostate) was > 100 µM and the GI50 (MCF7 breast) was 23.3 µM. For the same compound, the TGI (MCF7 breast) was > 100 µM, the GI50 (NCI/ADR-RES ovarian) was > 100 µM and the TGI (NCI/ADR-RES ovarian) was > 100 µM. The GI50 (T-47D breast) was > 100 µM and the TGI (T-47D breast) was > 100 µM.
For `C=C1SC(=Nc2c(C)cc(C)cc2C)N(C(=O)c2sc3ccccc3c2Cl)C12CCCCC2`, the GI50 (DU-145 prostate) was > 100 µM, the TGI (DU-145 prostate) was > 100 µM and the GI50 (MCF7 breast) was > 100 µM. The TGI (MCF7 breast) was > 100 µM, the GI50 (NCI/ADR-RES ovarian) was > 100 µM and the TGI (NCI/ADR-RES ovarian) was > 100 µM. The GI50 (T-47D breast) was 9.69 µM and the TGI (T-47D breast) was > 100 µM.
For `CC1(C)CC[C@H](Nc2ncc(C(F)(F)F)c(-c3c[nH]c4c(P(C)(C)=O)c(C#N)ccc34)n2)CN1`, the GI50 (DU-145 prostate) was 0.52 µM, the TGI (DU-145 prostate) was > 36.4 µM and the GI50 (MCF7 breast) was < 0.0137 µM. It also gave a TGI (MCF7 breast) of 10.2 µM, a GI50 (NCI/ADR-RES ovarian) of 3.18 µM and a TGI (NCI/ADR-RES ovarian) of 27.6 µM. It also gave a GI50 (T-47D breast) of 0.0255 µM and a TGI (T-47D breast) of 5.84 µM.
In the case of `CC(C)CNCC(O)COc1ccc(C(C)(C)c2ccc(OCC(O)CNCC(C)C)cc2)cc1` (stereo unspecified), the GI50 (DU-145 prostate) is reported as 2.46 µM, the TGI (DU-145 prostate) is reported as 7.49 µM and the GI50 (MCF7 breast) is reported as 1.73 µM. It also gave a TGI (MCF7 breast) of 3.48 µM, a GI50 (NCI/ADR-RES ovarian) of 7.63 µM and a TGI (NCI/ADR-RES ovarian) of 21.4 µM. It also gave a GI50 (T-47D breast) of 1.63 µM and a TGI (T-47D breast) of 3.63 µM.
With `O=[N+]([O-])c1ccc(S(=O)Cc2ccccc2)c([N+](=O)[O-])c1` (stereo unspecified) the GI50 (DU-145 prostate) was 11 µM, the TGI (DU-145 prostate) was 23 µM and the GI50 (MCF7 breast) was 2.48 µM. The TGI (MCF7 breast) was 6.96 µM, the GI50 (NCI/ADR-RES ovarian) was 13.5 µM and the TGI (NCI/ADR-RES ovarian) was 35.4 µM. The GI50 (T-47D breast) was 1.51 µM and the TGI (T-47D breast) was 3.6 µM.
In the case of `COc1ccc(-c2oc3c(OC)c(OC)c(OC)c(O)c3c(=O)c2OC)cc1OC`, the TGI (DU-145 prostate) is reported as > 100 µM, the TGI (MCF7 breast) is reported as > 35.1 µM and the TGI (NCI/ADR-RES ovarian) is reported as > 72 µM. For the same compound, the TGI (T-47D breast) was 25.6 µM.
With `O=C([CH-]C(=O)c1ccccc1)c1ccccc1.O=C([CH-]C(=O)c1ccccc1)c1ccccc1.O=C([CH-]C(=O)c1ccccc1)c1ccccc1.[Nd+3].[OH3+]` the GI50 (KM20L2 colon) was 10.9 µM and the TGI (KM20L2 colon) was 48 µM.
With `CS(=O)(=O)OCCN1CCN(C(=O)c2cccc3c(Nc4ccc(S(=O)(=O)N=C(N)N)cc4)c4ccccc4nc23)CC1` the TGI (DLD-1 colon) was > 100 µM, the TGI (DMS 114 small cell lung) was > 100 µM and the TGI (KM20L2 colon) was > 100 µM.
`CCN(CC)CCNc1ccc([N+](=O)[O-])c2sc3ccccc3c(=O)c12` showed a GI50 (DU-145 prostate) of 0.766 µM, a TGI (DU-145 prostate) of 2.05 µM and a GI50 (MCF7 breast) of 1.27 µM. It also gave a TGI (MCF7 breast) of 4.74 µM, a GI50 (NCI/ADR-RES ovarian) of 0.586 µM and a TGI (NCI/ADR-RES ovarian) of 2.72 µM. For the same compound, the GI50 (T-47D breast) was 4.4 µM and the TGI (T-47D breast) was 18.9 µM.
For `FC(F)(F)c1cc(-c2nnc3n2N=C(N2CCCC2)CS3)cc(C(F)(F)F)c1`, the GI50 (DU-145 prostate) was > 50 µM, the TGI (DU-145 prostate) was > 50 µM and the GI50 (MCF7 breast) was > 50 µM. The TGI (MCF7 breast) was > 50 µM, the GI50 (NCI/ADR-RES ovarian) was > 50 µM and the TGI (NCI/ADR-RES ovarian) was > 50 µM. For the same compound, the GI50 (T-47D breast) was 19.3 µM and the TGI (T-47D breast) was > 50 µM.
`O=C(/C=C/c1ccccc1)CC1OC(=O)c2ccccc21` (stereo unspecified) was tested, and the TGI (DLD-1 colon) was > 100 µM, the TGI (DMS 114 small cell lung) was > 100 µM and the TGI (HOP-18 NSCLC) was 78.4 µM. For the same compound, the TGI (KM20L2 colon) was > 100 µM and the TGI (LXFL 529 NSCLC) was > 100 µM.
`CSC(CC(=O)O)C(=O)O` (stereo unspecified) was tested, and the TGI (DU-145 prostate) was > 100 µM, the TGI (MCF7 breast) was > 100 µM and the TGI (NCI/ADR-RES ovarian) was > 100 µM. The TGI (T-47D breast) was > 100 µM.
For `Nc1nc2c(c(=O)[nH]1)NC(CO)CN2` (stereo unspecified), the TGI (DLD-1 colon) was > 100 µM, the TGI (DMS 114 small cell lung) was > 100 µM and the TGI (HOP-18 NSCLC) was > 100 µM.
`COC1=CC(=O)C2C(C1=O)[C@@H]1c3ccccc3C[C@H]21` (stereo partly specified) was tested, and the TGI (DLD-1 colon) was > 100 µM and the TGI (RXF-631 renal) was > 100 µM.
`COc1ccc2c(c1)C(=O)c1c-2n(CCCN=[N+]=[N-])c(=O)c2cc(N(C)C)ccc12` was tested, and the GI50 (DU-145 prostate) was > 100 µM, the TGI (DU-145 prostate) was > 100 µM and the GI50 (MCF7 breast) was > 100 µM. The TGI (MCF7 breast) was > 100 µM, the GI50 (NCI/ADR-RES ovarian) was > 100 µM and the TGI (NCI/ADR-RES ovarian) was > 100 µM. For the same compound, the GI50 (T-47D breast) was 61.3 µM and the TGI (T-47D breast) was > 100 µM.
In the case of `COc1ccc(-c2cc(=O)c3c(C)cc(C)nc3[nH]2)cc1`, the TGI (DU-145 prostate) is reported as > 100 µM, the TGI (MCF7 breast) is reported as > 100 µM and the TGI (NCI/ADR-RES ovarian) is reported as > 100 µM. The TGI (T-47D breast) was > 100 µM.
`C=CCN(/C=C1/C(=O)O[C@H](COC)[C@@]2(C)C1=C(O)C(=O)C1=C2[C@H](OC(C)=O)C[C@]2(C)C(=O)CC[C@@H]12)CC=C` was tested, and the GI50 (DU-145 prostate) was 2.43 µM, the TGI (DU-145 prostate) was > 10 µM and the GI50 (MCF7 breast) was 0.435 µM. The TGI (MCF7 breast) was > 10 µM, the GI50 (NCI/ADR-RES ovarian) was > 4.75 µM and the TGI (NCI/ADR-RES ovarian) was > 10 µM. The GI50 (T-47D breast) was 0.0992 µM and the TGI (T-47D breast) was > 3.78 µM.
In the case of `CC1CC#CCOC(=O)CCCC1=O` (stereo unspecified), the TGI (DLD-1 colon) is reported as > 100 µM, the TGI (DMS 114 small cell lung) is reported as > 100 µM and the TGI (HOP-18 NSCLC) is reported as > 100 µM. The TGI (KM20L2 colon) was > 100 µM and the TGI (LXFL 529 NSCLC) was > 100 µM.
`COc1ccccc1N=C(N)N/N=C/c1c[nH]c2ccccc12` was tested, and the TGI (DLD-1 colon) was 31.7 µM, the TGI (DMS 114 small cell lung) was 15.5 µM and the TGI (HOP-18 NSCLC) was 34 µM. It also gave a TGI (KM20L2 colon) of 26.1 µM and a TGI (LXFL 529 NSCLC) of 13.1 µM.
With `Cc1c(S(C)(=O)=O)c(-c2cc(F)cc(N3CCN(c4ccc(NS(=O)(=O)c5ccc(N[C@H](CCN6CCC(C(=O)OCCCP(=O)(O)O)CC6)CSc6ccccc6)c(S(=O)(=O)C(F)(F)F)c5)cc4)CC3)c2)c(-c2ccc(Cl)cc2)n1C(C)C` the GI50 (DU-145 prostate) was > 100 µM, the TGI (DU-145 prostate) was > 100 µM and the GI50 (MCF7 breast) was > 100 µM. The TGI (MCF7 breast) was > 100 µM, the GI50 (NCI/ADR-RES ovarian) was > 100 µM and the TGI (NCI/ADR-RES ovarian) was > 100 µM. The GI50 (T-47D breast) was > 100 µM and the TGI (T-47D breast) was > 100 µM.
In the case of `C1C[OH+]CC[OH+]CCNCC[OH+]CC[OH+]CCN1.[Cl-].[Pt+4]`, the GI50 (DLD-1 colon) is reported as > 100 µM, the TGI (DLD-1 colon) is reported as > 100 µM and the GI50 (HOP-18 NSCLC) is reported as > 100 µM. For the same compound, the TGI (HOP-18 NSCLC) was > 100 µM, the GI50 (KM20L2 colon) was > 100 µM and the TGI (KM20L2 colon) was > 100 µM. The GI50 (LXFL 529 NSCLC) was 63.7 µM and the TGI (LXFL 529 NSCLC) was > 100 µM.
For `NCCCOCC(=O)O`, the TGI (DMS 114 small cell lung) was > 100 µM, the TGI (KM20L2 colon) was > 100 µM and the TGI (LXFL 529 NSCLC) was > 100 µM.
With `CC(=O)Nc1ccc(C(=O)NN2C(=O)C(Cl)C2c2ccc([N+](=O)[O-])cc2)cc1` (stereo unspecified) the TGI (KM20L2 colon) was > 100 µM and the TGI (LXFL 529 NSCLC) was > 100 µM.
`C=CC1[C@H]2COC(C)(C)O[C@@H]2CC(=O)C1(C)C` (stereo partly specified) was tested, and the TGI (DLD-1 colon) was > 100 µM, the TGI (DMS 114 small cell lung) was > 100 µM and the TGI (HOP-18 NSCLC) was > 100 µM. For the same compound, the TGI (KM20L2 colon) was > 100 µM and the TGI (LXFL 529 NSCLC) was > 100 µM.
In the case of `O=C1C=CC=CC2CC=C[C@@H](O)C12` (stereo partly specified), the TGI (DLD-1 colon) is reported as > 100 µM, the TGI (DMS 114 small cell lung) is reported as 38.7 µM and the TGI (KM20L2 colon) is reported as 56 µM. For the same compound, the TGI (LXFL 529 NSCLC) was 36.2 µM.
